ChEMBL document CHEMBL3120156, “Discovery and development of simeprevir (TMC435), a HCV NS3/4A protease inhibitor” (J Med Chem, 2014)

Legend:
[1] = Apparent permeability of the compound from apical to basolateral side of human Caco2 cells; format: ADME, cell-based; conditions: Caco-2
[2] = Intrinsic clearance in human liver microsomes; format: ADME; conditions: read-out: CLH
[3] = tested on: Hepatitis C virus; assay: Antiviral activity against Hepatitis C virus genotype 1b infected in Huh7-clone ET Rep cells assessed as inhibition of HCV replication by luciferase assay; format: functional, organism-based, Hepacivirus hominis
[4] = Volume of distribution at steady state in Sprague-Dawley rat at 2 mg/kg, iv administered as single dose with 20% Hydroxypropyl-beta-cyclodextrine; format: ADME, organism-based; set-up: dose 2 mg/kg, route intravenous; conditions: in vivo, read-out: Vdss
[5] = Inhibition of Hepatitis C virus genotype 1a full-length NS3/4A protease; set-up: species or system Hepatitis C virus subtype 1a
[6] = Drug metabolism in human liver microsomes at 5 uM at 37 degC after 15 mins; format: ADME; conditions: read-out: Drug metabolism
[7] = tested on: Hepatitis C virus; assay: Antiviral activity against Hepatitis C virus genotype 1a; format: functional, organism-based, Hepacivirus hominis; conditions: subtype 1a
[8] = Inhibition of Hepatitis C virus genotype 1b NS3/4A protease; set-up: species or system Hepatitis C virus subtype 1b
[9] = tested on: Hepatitis C virus; assay: Antiviral activity against Hepatitis C virus genotype 1 infected in human patient assessed as log10 reduction of viral RNA level administered as oral dose measured after 2 days; format: functional, Hepacivirus hominis
[10] = Metabolic stability in rat bile assessed as unchanged drug level at 1 mg/kg, iv after 1 hr; format: ADME, organism-based; set-up: dose 1 mg/kg, route intravenous; conditions: read-out: Stability
[11] = Plasma clearance in rat; format: ADME, organism-based
[12] = Oral bioavailability in rat; format: ADME, organism-based; conditions: in vivo
[13] = Ratio of drug level in liver to plasma in Sprague-Dawley rat at 10 mg/kg, po administered with 50% PEG400 containing 2.5% of Vitamin E-TPGS measured after 6 hrs; format: ADME, organism-based; set-up: dose 10 mg/kg, route oral; conditions: liver and plasma
[14] = Half life in Sprague-Dawley rat at 10 mg/kg, po administered with 50% PEG400 containing 2.5% of Vitamin E-TPGS; format: ADME, organism-based; set-up: dose 10 mg/kg, route oral; conditions: in vivo
[15] = Tmax in Sprague-Dawley rat at 10 mg/kg, po administered with 50% PEG400 containing 2.5% of Vitamin E-TPGS; format: ADME, organism-based; set-up: dose 10 mg/kg, route oral; conditions: in vivo
[16] = AUC in Sprague-Dawley rat at 10 mg/kg, po administered with 50% PEG400 containing 2.5% of Vitamin E-TPGS; format: ADME, organism-based; set-up: dose 10 mg/kg, route oral; conditions: plasma
[17] = Ratio of drug level in liver to plasma in Sprague-Dawley rat at 2 mg/kg, iv administered as single dose with 20% Hydroxypropyl-beta-cyclodextrine measured after 6 hrs; format: ADME, organism-based; set-up: dose 2 mg/kg, route intravenous; conditions: liver and plasma
[18] = Oral bioavailability in Sprague-Dawley rat at 10 mg/kg administered with 50% PEG400 containing 2.5% of Vitamin E-TPGS; format: ADME, organism-based; conditions: in vivo
[19] = Cmax in Sprague-Dawley rat at 10 mg/kg, po administered with 50% PEG400 containing 2.5% of Vitamin E-TPGS; format: ADME, organism-based; set-up: dose 10 mg/kg, route oral; conditions: in vivo
[20] = Clearance in Sprague-Dawley rat at 2 mg/kg, iv administered as single dose with 20% Hydroxypropyl-beta-cyclodextrine; format: ADME, organism-based; set-up: dose 2 mg/kg, route intravenous; conditions: in vivo
[21] = tested on: Hepatitis C virus; assay: Antiviral activity against Hepatitis C virus infected in po dosed patient assessed as log10 reduction of HCV RNA level administered qd for 5 days; format: functional, Hepacivirus hominis
[22] = tested on: PBMC; assay: Cytostatic activity against staphylococcal enterotoxin B-stimulated human PBMC assessed as decrease in cell proliferation after 7 hrs by [3H]thymidine incorporation assay; format: cell-based; conditions: read-out: CS50 (the source's name)
[23] = Cytotoxicity against staphylococcal enterotoxin B-stimulated human PBMC assessed as decrease in cell viability after 72 hrs by WST-1 assay; format: cell-based
[24] = Protein binding in plasma (unknown origin); format: ADME, cell-free; conditions: read-out: PPB

## COc1ccc2c(O[C@@H]3C[C@H]4C(=O)N[C@]5(C(=O)NS(=O)(=O)C6CC6)C[C@H]5/C=C\CCCCN(C)C(=O)N4C3)nc(-c3ccccc3)nc2c1C
[1]
  Papp A→B: 26 ×10⁻⁶ cm/s
[2]
  microsomal CLint: 17 µL/min/mg
[3]
  EC50: 11 nM
[4]
  Vd: 1.1 L/kg
[5]
  Ki: 0.2 nM

## COc1ccc(-c2nc(O[C@@H]3C[C@H]4C(=O)N[C@]5(C(=O)NS(=O)(=O)C6CC6)C[C@H]5/C=C\CCCCN(C)C(=O)N4C3)c3ccc(OC)c(C)c3n2)cc1
[1]
  Papp A→B: 33 ×10⁻⁶ cm/s
[2]
  microsomal CLint: 8 µL/min/mg
[3]
  EC50: 3 nM
[5]
  Ki: 0.6 nM

## C=C[C@@H]1C[C@]1(NC(=O)[C@@H]1C[C@@H](Oc2cc(-c3ccccc3)nc3cc(OC)ccc23)C=C1C(=O)N[C@H](C(=O)N[C@H](C(=O)NC)C1CCCCC1)C(C)(C)C)C(=O)O
[5]
  Ki: 1.3 nM

## C=C[C@@H]1C[C@]1(NC(=O)[C@@H]1C[C@@H](Oc2cc(-c3ccccc3)nc3cc(OC)ccc23)C[C@H]1C(=O)N[C@H](C(=O)N[C@H](C(=O)NC)C1CCCCC1)C(C)(C)C)C(=O)O
[5]
  Ki: 22 nM

## CCc1cnc(-c2ccc(C)cc2NC(=O)O[C@@H]2C[C@H]3C(=O)N[C@]4(C(=O)NS(=O)(=O)C5CC5)C[C@H]4/C=C\CCCCN(C)C(=O)[C@@H]3C2)s1
[1]
  Papp A→B: 15 ×10⁻⁶ cm/s
[2]
  microsomal CLint: < 6 µL/min/mg
[3]
  EC50: 3.2 nM
[5]
  Ki: 0.2 nM

## CCOc1cc(O[C@@H]2C[C@H]3C(=O)N[C@]4(C(=O)NS(=O)(=O)C5CC5)C[C@H]4/C=C\CCCCN(C)C(=O)[C@@H]3C2)c2ccc(OC)c(C)c2n1
[3]
  EC50: 4.3 nM

## COc1cc(O[C@@H]2C[C@H]3C(=O)N[C@]4(C(=O)NS(=O)(=O)C5CC5)C[C@H]4/C=C\CCCCN(C)C(=O)N3C2)nc(-c2ccccc2)n1
[3]
  EC50: 84 nM

## COc1ccc2c(O[C@@H]3C[C@H]4C(=O)N[C@]5(C(=O)NS(=O)(=O)C6CC6)C[C@H]5/C=C\COCCN(C)C(=O)[C@@H]4C3)cc(-c3ccccc3)nc2c1
[3]
  EC50: 320 nM

## COc1ccc2c(O[C@@H]3C[C@H]4C(=O)N[C@]5(C(=O)O)C[C@H]5/C=C/CCCCC[C@H](NC(=O)OC5CCCC5)C(=O)N4C3)cc(-c3csc(NC(C)C)n3)nc2c1 [listing 1 of 2 here]
[6]
  metabolised at 0.25 h, 5 µM: 2.5%
[7]
  EC50: 4 nM
[3]
  EC50: 1.63 nM
[8]
  Ki: 0.66 nM

## COc1ccc2c(O[C@@H]3C[C@H]4C(=O)N[C@]5(C(=O)O)C[C@H]5/C=C/CCCCC[C@H](NC(=O)OC5CCCC5)C(=O)N4C3)cc(-c3csc(NC(C)C)n3)nc2c1 [listing 2 of 2 here]
[9]
  FC: 2

## COc1ccc2c(O[C@@H]3C[C@H]4C(=O)N[C@]5(C(=O)O)C[C@H]5/C=C\CCCN(C(=O)OC(C)(C)C)C(=O)[C@@H]4C3)cc(-c3ccccc3)nc2c1
[3]
  EC50: > 10 nM
[5]
  Ki: 130 nM

## COc1ccc2c(O[C@@H]3C[C@H]4C(=O)N[C@]5(C(=O)O)C[C@H]5/C=C\CCCCN(C(=O)OC(C)(C)C)C(=O)[C@@H]4C3)cc(-c3ccccc3)nc2c1
[3]
  EC50: > 10 nM
[5]
  Ki: 31 nM

## COc1ccc2c(O[C@@H]3C[C@H]4C(=O)N[C@]5(C(=O)O)C[C@H]5/C=C\CCCCCN(C(=O)OC(C)(C)C)C(=O)[C@@H]4C3)cc(-c3ccccc3)nc2c1
[3]
  EC50: > 10 nM
[5]
  Ki: 710 nM

## COc1ccc2c(O[C@@H]3C[C@H]4C(=O)N[C@]5(C(=O)O)C[C@H]5/C=C\CCCCN(N)C(=O)[C@@H]4C3)cc(-c3ccccc3)nc2c1
[3]
  EC50: 7.6 nM
[5]
  Ki: 6 nM

## COc1ccc2c(O[C@H]3C=C4C(=O)N(N)CCCC/C=C\[C@@H]5C[C@@]5(C(=O)O)NC(=O)C4C3)cc(-c3ccccc3)nc2c1 (stereo partly specified)
[3]
  EC50: 5.4 nM
[5]
  Ki: 15 nM

## COc1ccc2c(O[C@H]3C[C@H]4C(=O)NCCCC/C=C\[C@@H]5C[C@@]5(C(=O)O)NC(=O)[C@@H]4C3)cc(-c3ccccc3)nc2c1
[3]
  EC50: > 10 nM
[5]
  Ki: 260 nM

## COc1ccc2c(O[C@@H]3C[C@H]4C(=O)N[C@]5(C(=O)O)C[C@H]5/C=C\CCCCN(C)C(=O)[C@@H]4C3)cc(-c3ccccc3)nc2c1
[3]
  EC50: 2.2 nM
[5]
  Ki: 44 nM

## COc1ccc2c(O[C@@H]3C[C@H]4C(=O)N[C@]5(C(=O)NS(=O)(=O)C6CC6)C[C@H]5/C=C\CCCCN(NC(=O)OC(C)(C)C)C(=O)[C@@H]4C3)cc(-c3ccccc3)nc2c1
[3]
  EC50: 0.53 nM
[5]
  Ki: 0.07 nM

## COc1ccc2c(O[C@@H]3C[C@H]4C(=O)N[C@]5(C(=O)NS(=O)(=O)C6CC6)C[C@H]5/C=C\CCCCN(N)C(=O)[C@@H]4C3)cc(-c3ccccc3)nc2c1
[3]
  EC50: 0.033 nM
[5]
  Ki: 0.19 nM

## COc1ccc2c(O[C@H]3C[C@H]4C(=O)NCCCC/C=C\[C@@H]5C[C@@]5(C(=O)NS(=O)(=O)C5CC5)NC(=O)[C@@H]4C3)cc(-c3ccccc3)nc2c1
[3]
  EC50: 4.4 nM
[5]
  Ki: 2.2 nM

## COc1ccc2c(O[C@@H]3C[C@H]4C(=O)N[C@]5(C(=O)NS(=O)(=O)C6CC6)C[C@H]5/C=C\CCCCN(C)C(=O)[C@@H]4C3)cc(-c3ccccc3)nc2c1
[10]
  remaining at 1 h: 95%
[11]
  clearance: 46.5 mL/min/kg
[12]
  bioavailability: 2.5%

## COc1ccc2c(O[C@@H]3C[C@H]4C(=O)N[C@]5(C(=O)NS(=O)(=O)C6(C)CC6)C[C@H]5/C=C\CCCCCNC(=O)N4C3)cc(-c3nc(C(C)C)cs3)nc2c1
[13]
  Kp at 6 h: 100
[14]
  half-life: 3 h
[15]
  Tmax: 0.75 h
[16]
  AUC: 6 µM·h
[17]
  Kp at 6 h: 550
[6]
  metabolised at 0.25 h, 5 µM: 89%
[4]
  Vd: 1 L/kg

## COc1ccc2c(O[C@@H]3C[C@H]4C(=O)N[C@]5(C(=O)NS(=O)(=O)C6(C)CC6)C[C@H]5/C=C\CCCCCC(=O)N4C3)cc(-c3nc(C(C)C)cs3)nc2c1C
[18]
  bioavailability: 31%
[14]
  half-life: 2.7 h
[15]
  Tmax: 0.75 h
[19]
  Cmax: 930 nM
[1]
  Papp A→B: 11.1 ×10⁻⁶ cm/s
[3]
  EC50: 3.8 nM
[20]
  clearance: 15.7 mL/min/kg
[4]
  Vd: 0.56 L/kg
[5]
  Ki: 0.2 nM

## COc1ccc2c(O[C@@H]3C[C@H]4C(=O)N[C@]5(C(=O)NS(=O)(=O)C6CC6)C[C@H]5/C=C\CCCCN(C)C(=O)[C@@H]4C3)cc(-c3nc(C(C)C)cs3)nc2c1C [SIMEPREVIR]
[3]
  EC50: 7.8 nM
  EC90: 19 nM
[8]
  Ki: 1.4 nM
[5]
  Ki: 0.36 nM
[21]
  FC: 3.9
[22]
  GI50: ≥ 10000 nM
[23]
  CC50 at 72 h: ≥ 10000 nM
[24]
  fraction unbound: < 0.01

## H-DDIVPC-OH
[5]
  Ki: 71000 nM
